From patent publication US20240109900A1, “AZABICYCLIC SHP2 INHIBITORS” (IRBM S.P.A., priority 2021, published 2024) come the findings set out here.

Molecules are shown by their SMILES. pIC50: −log10 of the molar value.

Chain of SHP-2 enzyme (Met1-Leu525) (Q06124 1-525): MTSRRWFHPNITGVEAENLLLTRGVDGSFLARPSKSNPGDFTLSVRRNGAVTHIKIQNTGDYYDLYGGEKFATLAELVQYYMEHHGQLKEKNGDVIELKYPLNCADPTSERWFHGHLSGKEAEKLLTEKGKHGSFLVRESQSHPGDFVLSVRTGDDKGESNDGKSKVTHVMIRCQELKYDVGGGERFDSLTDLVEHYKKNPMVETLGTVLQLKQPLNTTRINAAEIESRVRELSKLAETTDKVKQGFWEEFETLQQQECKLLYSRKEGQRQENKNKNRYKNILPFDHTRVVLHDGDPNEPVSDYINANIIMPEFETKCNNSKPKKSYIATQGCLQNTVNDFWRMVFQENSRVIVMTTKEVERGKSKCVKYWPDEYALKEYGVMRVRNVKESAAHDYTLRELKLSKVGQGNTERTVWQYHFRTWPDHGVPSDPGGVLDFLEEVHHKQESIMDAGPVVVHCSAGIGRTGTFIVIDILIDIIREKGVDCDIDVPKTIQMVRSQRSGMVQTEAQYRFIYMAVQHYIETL

The target of the first assay is SHP-2 enzyme (Met1-Leu525) (Homo sapiens (Human), UniProt Q06124). Put plainly: SHP2 inhibition enzymatic assay. In kind it is biochemical. To be noted: 0.5 nM SHP-2 activated by 500 nM IRS1 peptide, 75 μM DiFMUP substrate; read-out: SHP2wt-IC50. The protocol:
The assay was performed as described in YP Chen et al, Nature (535)2016. Assay volume of 20 μL/well was assembled in 384 well black polystyrene low-binding microplates (Greiner), using the following buffer: 60 mM HEPES pH 7.2, 75 mM NaCl, 75 mM KCl, 1 mM EDTA pH 8, 0.05% tween-20, 5 mM DTT. The SHP-2 enzyme (synthetized by Origene, Met1-Leu525, cat #TP750155) was used at a final concentration of 0.5 nM. The enzyme was activated by 500 nM IRS1 peptide (sequence: H2N-LN(pY)IDLDLV(dPEG8)LST(pY)ASINFQK-amide SEQ ID No. 1) and incubated with 75 μM DiFMUP (Sigma) as substrate.
Briefly, DMSO serially diluted testing compounds were transferred to the bottom of the assay plate. SHP2 was then added together with the IRS1 peptide. 30 min post incubation, the DiFMUP substrate was added to the reaction and incubated 30 min at room temperature. Finally 5 μL of 160 μM bpV (Potassium bisperoxo[1,10-phenanthroline]oxovanadate [V], Sigma) were added to stop and quench the reaction. The fluorescence was detected by a microplate reader (Envision, PerkinElmer) according to the DiFMUP excitation and emission wavelength. The lower the fluorescence the higher the SHP2 inhibition. […] The percentage inhibition is fitted against the compound dilutions with a four-parameter logistic regression. The inflection point (i.e. the concentration at which half-maximal inhibition is achieved) is the IC50.
Consider `Cn1cc2c(Cl)c(-c3n[nH]c4nc(N5C[C@@H]6[C@H](C5)[C@@]6(CN)c5ccccc5F)cnc34)ccc2n1` [Example 499, ((1R,5S,6s)-3-(3-(4-chloro-2-methyl-2H-indazol-5-yl)-1H-pyrazolo[3,4-b]pyrazin-6-yl)-6-(2-fluorophenyl)-3-azabicyclo[3.1.0]hexan-6-yl)methanamine], for which the pIC50 was over 6.30. The same measure, in the same setting: then `Cn1ccc([C@@]2(CN)[C@@H]3CN(c4cnc5c(-c6ccc7nn(C)cc7c6Cl)n[nH]c5n4)C[C@@H]32)n1` [Example 474, ((1R,5S,6r)-3-(3-(4-chloro-2-methyl-2H-indazol-5-yl)-1H-pyrazolo[3,4-b]pyrazin-6-yl)-6-(1-methyl-1H-pyrazol-3-yl)-3-azabicyclo[3.1.0]hexan-6-yl)methanamine], with over 6.30; and `Cc1cc(C2(CN)C3CCN(c4cnc5c(-c6cccc7nn(C)cc67)n[nH]c5n4)CC32)no1` (stereo not shown) [Example 26, (3-(3-(2-methyl-2H-indazol-4-yl)-1H-pyrazolo[3,4-b]pyrazin-6-yl)-7-(5-methylisoxazol-3-yl)-3-azabicyclo[4.1.0]heptan-7-yl)methanamine], with over 6.30.

Take `NC[C@]1(c2cc(F)ccc2F)[C@@H]2CCN(c3cnc4nc(-c5ccc6c(c5)CCC(=O)N6)ccc4n3)C[C@@H]21` [Example 531, 6-(2-((1S,6R,7R)-7-(aminomethyl)-7-(2,5-difluorophenyl)-3-azabicyclo[4.1.0]heptan-3-yl)pyrido[2,3-b]pyrazin-6-yl)-3,4-dihydroquinolin-2(1H)-one]: the pIC50 is over 6.30.

For a further assay, the system named is ERK phosphorylation in KYSE-520 cells. Put plainly: Phospho-ERK cellular assay. In kind it is cell-based. The conditions noted are these: Homo sapiens, KYSE-520, 2 h, KYSE-520 cells, 2 h at 37° C., phospho-ERK1/2 (Thr202/Tyr204) TR-FRET; read-out: PERK IC50. The protocol: ERK phosphorylation was detected using the “Advanced phospho-ERK1/2 (Thr202/Tyr204)” TR-FRET kit (Cisbio, Cat #64AERPEG/H), following the manufacturer reagents and instructions.
Briefly, 20.000/well KYSE-520 cells (DSMZ ACC 371) were plated in 6 μL RPMI-1640 (Invitrogen) growth medium, into 384 white low-volume high base TC microplates (Greiner). After an overnight incubation, cells were treated with DMSO serial diluted compounds and incubated for 2 h at 37° C. After incubation, 2 μL/well of 4×Lysis Buffer (Cisbio 64KL1FDF), were added and incubated with cells for 30 min on gentle shaking. Finally, lysates were added with 2 μL/well of Eu cryptate (donor) and D2 (acceptor) conjugated antibodies (as provided by the Cisbio kit #64AERPEG/H) diluted 1:100 in Detection Buffer (as provided by the Cisbio kit #64AERPEG/H). Plates were then sealed and incubated at room temperature in the dark. After an overnight incubation, the TR-FRET signal was detected on a suitable reader (Envision, PerkinElmer). The lower the TR-FRET signal the higher the higher the SHP2 inhibition in cells.
The activity of each compound dilution was calculated as percentage between vehicle DMSO treated cells and no cells, 0% inhibition and 100% inhibition respectively. The percentage activity is fitted against the compound dilutions with a four-parameter logistic regression. The inflection point (i.e. the concentration at which half-maximal inhibition is achieved) is the IC50.
For the compound `Cn1cc2c(Cl)c(-c3n[nH]c4nc(N5C[C@@H]6[C@H](C5)[C@@]6(CN)c5ccccc5F)cnc34)ccc2n1` [Example 499, ((1R,5S,6s)-3-(3-(4-chloro-2-methyl-2H-indazol-5-yl)-1H-pyrazolo[3,4-b]pyrazin-6-yl)-6-(2-fluorophenyl)-3-azabicyclo[3.1.0]hexan-6-yl)methanamine], the pIC50 was over 6.00. Same read-out and setting: then `Cn1ccc([C@@]2(CN)[C@@H]3CN(c4cnc5c(-c6ccc7nn(C)cc7c6Cl)n[nH]c5n4)C[C@@H]32)n1` [Example 474, ((1R,5S,6r)-3-(3-(4-chloro-2-methyl-2H-indazol-5-yl)-1H-pyrazolo[3,4-b]pyrazin-6-yl)-6-(1-methyl-1H-pyrazol-3-yl)-3-azabicyclo[3.1.0]hexan-6-yl)methanamine], with over 6.00. Same read-out and setting: then `Cc1cc(C2(CN)C3CCN(c4cnc5c(-c6cccc7nn(C)cc67)n[nH]c5n4)CC32)no1` (stereo not shown) [Example 26, (3-(3-(2-methyl-2H-indazol-4-yl)-1H-pyrazolo[3,4-b]pyrazin-6-yl)-7-(5-methylisoxazol-3-yl)-3-azabicyclo[4.1.0]heptan-7-yl)methanamine], with over 6.00; and `NC[C@]1(c2ccccc2F)[C@@H]2CCN(c3nc4nc(Sc5ccnc(-n6cccn6)c5Cl)cnc4[nH]3)C[C@@H]21` [Example 342, ((1S,6R,7R)-3-(5-((3-chloro-2-(1H-pyrazol-1-yl)pyridin-4-yl)thio)-1H-imidazo[4,5-b]pyrazin-2-yl)-7-(2-fluorophenyl)-3-azabicyclo[4.1.0]heptan-7-yl)methanamine], with under 5.30. Same read-out and setting: in the case of `NCC1(c2ccccc2F)C2CCN(c3cc4nc(Sc5ccnc(N)c5Cl)cnc4[nH]3)CC21` (stereo not shown) [Example 59, 4-((6-(7-(aminomethyl)-7-(2-fluorophenyl)-3-azabicyclo[4.1.0]heptan-3-yl)-5H-pyrrolo[2,3-b]pyrazin-2-yl)thio)-3-chloropyridin-2-amine] it was over 6.00; in that of `NC[C@]1(c2ccccc2F)[C@@H]2CCN(c3cnc4c(-c5ccc(CC(N)=O)cc5Cl)n[nH]c4n3)C[C@@H]21` [Example 328, 2-(4-(6-((1S,6R,7R)-7-(aminomethyl)-7-(2-fluorophenyl)-3-azabicyclo[4.1.0]heptan-3-yl)-1H-pyrazolo[3,4-b]pyrazin-3-yl)-3-chlorophenyl)acetamide], under 5.30; in that of `Cc1csc([C@@]2(CN)[C@@H]3CN(c4nc(C)n(-c5cccc(Cl)c5Cl)c(=O)c4Cl)C[C@@H]32)n1` [Example 526, 6-((1R,5S,6r)-6-(aminomethyl)-6-(4-methylthiazol-2-yl)-3-azabicyclo[3.1.0]hexan-3-yl)-5-chloro-3-(2,3-dichlorophenyl)-2-methylpyrimidin-4(3H)-one], under 5.30.

Regarding `Cc1cc(C(N)=O)ncc1-c1n[nH]c2nc(N3CC[C@@H]4[C@H](C3)[C@@]4(CN)c3ccccc3F)cnc12` [Example 307, 5-(6-((1S,6R,7R)-7-(aminomethyl)-7-(2-fluorophenyl)-3-azabicyclo[4.1.0]heptan-3-yl)-1H-pyrazolo[3,4-b]pyrazin-3-yl)-4-methylpicolinamide], the pIC50 was over 6.00.

For the compound `Cc1csc([C@@]2(CN)[C@@H]3CN(c4cnc(Sc5ccnc(-n6cccn6)c5Cl)cn4)C[C@@H]32)n1` [Example 520, ((1R,5S,6r)-3-(5-((3-chloro-2-(1H-pyrazol-1-yl)pyridin-4-yl)thio)pyrazin-2-yl)-6-(4-methylthiazol-2-yl)-3-azabicyclo[3.1.0]hexan-6-yl)methanamine], the pIC50 was over 6.00. With `N#CNC(=O)c1ccc(-c2n[nH]c3nc(N4CC[C@@H]5[C@H](C4)[C@@]5(CN)c4ccccc4F)cnc23)c(Cl)c1` [Example 310, 4-(6-((1S,6R,7R)-7-(aminomethyl)-7-(2-fluorophenyl)-3-azabicyclo[4.1.0]heptan-3-yl)-1H-pyrazolo[3,4-b]pyrazin-3-yl)-3-chloro-N-cyanobenzamide], the pIC50 was under 5.30.

As for `Cc1csc([C@@]2(CN)[C@@H]3CCN(c4cnc5c(-c6ccc(F)c7ncccc67)c[nH]c5n4)C[C@@H]32)n1` [Example 502, ((1S,6R,7S)-3-(7-(8-fluoroquinolin-5-yl)-5H-pyrrolo[2,3-b]pyrazin-3-yl)-7-(4-methylthiazol-2-yl)-3-azabicyclo[4.1.0]heptan-7-yl)methanamine], the pIC50 was over 6.00. Take `Cc1c(-c2n[nH]c3nc(N4CC[C@@H]5[C@H](C4)[C@@]5(CN)c4cc(F)cc(F)c4)cnc23)ccc2nn(C)cc12` [Example 308, ((1S,6R,7R)-7-(3,5-difluorophenyl)-3-(3-(2,4-dimethyl-2H-indazol-5-yl)-1H-pyrazolo[3,4-b]pyrazin-6-yl)-3-azabicyclo[4.1.0]heptan-7-yl)methanamine]: the pIC50 is over 6.00. Same read-out and setting: then `CC(C)(C)C#Cc1n[nH]c2nc(N3CC[C@@H]4[C@H](C3)[C@@]4(CN)c3ccccc3F)cnc12` [Example 366, ((1S,6R,7R)-3-(3-(3,3-dimethylbut-1-yn-1-yl)-1H-pyrazolo[3,4-b]pyrazin-6-yl)-7-(2-fluorophenyl)-3-azabicyclo[4.1.0]heptan-7-yl)methanamine], with over 6.00.

For `Cc1cc([C@@]2(CN)[C@@H]3CCN(c4cnc5c(-c6cccc(-c7ncco7)c6Cl)n[nH]c5n4)C[C@@H]32)no1` [Example 111, ((1S,6R,7S)-3-(3-(2-chloro-3-(oxazol-2-yl)phenyl)-1H-pyrazolo[3,4-b]pyrazin-6-yl)-7-(5-methylisoxazol-3-yl)-3-azabicyclo[4.1.0]heptan-7-yl)methanamine], the pIC50 is over 6.00. Still for that read-out and setting: in the case of `NC[C@]1(c2ccccc2F)[C@@H]2CCN(c3cnc4c(-c5ccc(-c6nsc(O)n6)cc5Cl)n[nH]c4n3)C[C@@H]21` [Example 379, 3-(4-(6-((1S,6R,7R)-7-(aminomethyl)-7-(2-fluorophenyl)-3-azabicyclo[4.1.0]heptan-3-yl)-1H-pyrazolo[3,4-b]pyrazin-3-yl)-3-chlorophenyl)-1,2,4-thiadiazol-5-ol] it was under 5.30; in that of `NC[C@]1(c2ccccc2F)[C@@H]2CCN(c3cnc4c(-c5ccc(-c6cc(F)c(O)c(F)c6)cc5Cl)n[nH]c4n3)C[C@@H]21` [Example 313, 4′-(6-((1S,6R,7R)-7-(aminomethyl)-7-(2-fluorophenyl)-3-azabicyclo[4.1.0]heptan-3-yl)-1H-pyrazolo[3,4-b]pyrazin-3-yl)-3′-chloro-3,5-difluoro-[1,1′-biphenyl]-4-ol], over 6.00; in that of `NC[C@]1(c2ccsn2)[C@@H]2CN(c3cnc4c(-c5ccc6nn(C(F)F)cc6c5Cl)n[nH]c4n3)C[C@@H]21` [Example 468, ((1R,5S,6r)-3-(3-(4-chloro-2-(difluoromethyl)-2H-indazol-5-yl)-1H-pyrazolo[3,4-b]pyrazin-6-yl)-6-(isothiazol-3-yl)-3-azabicyclo[3.1.0]hexan-6-yl)methanamine], over 6.00. On the same count and under the same terms, in the case of `Cc1csc([C@@]2(CN)[C@@H]3CN(c4cnc5c(-c6ccnc(-n7cccn7)c6Cl)n[nH]c5n4)C[C@@H]32)n1` [Example 516, ((1R,5S,6r)-3-(3-(3-chloro-2-(1H-pyrazol-1-yl)pyridin-4-yl)-1H-pyrazolo[3,4-b]pyrazin-6-yl)-6-(4-methylthiazol-2-yl)-3-azabicyclo[3.1.0]hexan-6-yl)methanamine] it was over 6.00.
